{"source": "patent US7528252B2", "about": "“Derivatives of triazoly-imidazopyridine useful as ligands of the adenosine A2a receptor and their use as medicaments” (Sigma-Tau Industrie Farmaceutiche Riunite S.p.A., priority 2002, dated 2009)", "assay_type_in_all_cases": "in vivo", "key": {"mice [1]": {"test_system": "mice", "assay": "Capacity to antagonise CGS 21680 induced catalepsy", "conditions": "orally 5 mg/Kg and 10 mg/Kg, 30 minutes prior to CGS 21680 (10 μg/5 μl/mouse i.c.v.); scored 30′, 60′, 120′, 180′", "experimental": "(§1) 10 CD1 male mice were used per group. For this test, a steel bar, 10 cm long, was placed at a height of 4.5 cm above the support surface. Onto this, were placed the front legs of the animals. The presence of catalepsy was determined by measuring the time (in seconds) the animal remained in the posture placed. Later, this parameter was placed relatively, on a scale of rising values (0 to 5) through which, the degree of catalepsy determined in both control animals and in these subjected to treatment with the substances under test could be proportionately expressed.\nFor this study, the product ST 1535 was used. Catalepsy was induced in the animals through the intracerebroventricular administration of CGS 21680 (10 μg/5 μl/mouse), 30 minutes prior to testing for the catalepsy score. The test compound was administered orally at a dose of 5 mg/Kg and 10 mg/Kg , 30 minutes prior to treatment with CGS 21680.\nThe catalepsy score was derived in the manner described following treatment with OGS 21680 after the following times: 30′, 60′ 120′, 180′."}, "mice [2]": {"test_system": "mice", "assay": "Capacity to antagonise Haloperidol-induced catalepsy", "conditions": "orally 10 mg/kg and 20 mg/kg; Haloperidol 4 mg/Kg endoperitoneal", "experimental": "as §1\nFor this study, product ST 1535 was used. Catalepsy was induced in the animals through the endoperitoneal administration of Haloperidol at a dose of 4 mg/Kg, two hours prior measuring catalepsy in the animals, the presence of which was determined according to the method described previously.\nAfter scoring for catalepsy by Haloperidol, the animals were treated orally, with a dose equal to 10 mg/kg and 20 mg/kg of the product ST 1535. Then 60 minutes after treatment, the animals were subjected to further catalepsy scoring, which was carried out at the following times after ST 1535 administration: 120′, 240′, 300′."}, "mice [3]": {"test_system": "mice", "assay": "Forced swim test in mice", "conditions": "60 minutes before the test; 4 minutes of testing period", "experimental": "Mice were dropped individually into glass cylinders (height: 25 cm, internal diameter 10 cm) containing 10 cm water, maintained at 23° C. The immobility time (sec) was measured during 4 minutes of test. A mouse was judged to be immobile when it remained floating in the water, making only the necessary movements to keep its head above water. Test compound ST 1535 was administered orally to mice, 60 minutes before the test."}, "CD1 mice": {"test_system": "CD1 mice", "assay": "Associated L-DOPA and A2a antagonists on Haloperidol-induced catalepsy", "conditions": "ST 1535 1.25 or 2.5 mg/kg per os; L-DOPA 12.5 mg/kg; benserazide 3.12 mg/kg i.p.; Haloperidol 4 mg/kg i.p.", "experimental": "For this study, product ST 1535 was used.\nCD1 mice, divided into different experimental groups (n=10 per group) were used. All animals were subjected to treatment with Haloperidol (4 mg/kg, i.p.) two hours and 30′ prior to the catalepsy test, carried out according to the method described above.\nLater, the animals were subjected to different types of treatment according to their original experimental group (see diagram). All catalepsy evaluations were carried out 2 hours and 30 minutes after Haloperidol treatment.\nHaloperidol+ST 1535: ST 1535 2.5 mg/kg, per os, 75′ prior to testing;\nHaloperidol+benserazide+L-Dopa: Benserazide 3.12 mg/kg i.p., 90′ prior to testing;\nL-DOPA:. 12.5 mg/kg, 60′ prior to testing;\nAloperidol+benserazide+L-Dopa+ST 1535: Benserazide 3.12 mg/kg i.p., 90′ prior to testing;\nL-DOPA 12.5 mg/kg, 60′ prior to testing;"}}}
{"smiles": "CCCCc1nc(N)c2nc(-n3nccn3)n(C)c2n1", "note": "[ST 1535, 2-butyl-9-methyl-8-(2H-1,2,3-triazol-2-yl)-9H-purine-6-ylamine]", "values": [{"measurement": "effect on CGS 21680-induced catalepsy (FIG. 2)", "setting": "mice [1]", "result": "significantly antagonises the appearance of catalepsy at all the observed times"}, {"measurement": "effect on Haloperidol induced catalepsy (FIG. 3)", "setting": "mice [2]", "result": "reduces the appearance of catalepsy in mice"}, {"measurement": "time of immobility, forced swim test (FIG. 5)", "setting": "mice [3]", "result": "reduces, in a dose-dependant manner, the time of immobility of the animal"}, {"measurement": "combination with sub threshold dose of L-DOPA plus benserazide on Haloperidol-induced catalepsy (FIG. 4)", "setting": "CD1 mice", "result": "potentiates the anticataleptic activity of treatment with ineffective doses of L-DOPA and benserazide"}]}
